According to patent publication US11697850B2, “Polymorphism in the Apo(a) gene predict responsiveness to acetylsalicylic acid treatment” (Celera Corporation, priority 2007, dated 2023):

Experiment: Women's Health Study (WHS): randomized trial of low dose aspirin vs placebo, incident cardiovascular events stratified by rs3798220 genotype or Lp(a) level
Type: in vivo, human
Conditions: for relative risk reduction of major vascular events with aspirin: aspirin 100 mg orally on alternate days vs placebo, 10-year follow-up
Source text: The genotype of this polymorphism was therefore determined among 26,274 initially healthy women from the Women's Health Study (WHS) who had been randomly allocated to low dose aspirin or placebo and then followed over a 10-year period for incident cardiovascular events (31). This setting afforded the opportunity for prospective assessment not only of rs3798220 association with Lp(a) levels and vascular risk, but also of an interaction between aspirin and genetic effects on risk. Although most of the study participants were Caucasian, there were sufficient numbers of non-Caucasian participants to address population-specific influences on associations between rs3798220 and Lp(a) levels, as have been found in previous comparisons of other apolipoprotein(a) variants among populations with different biogeographic ancestry (32-36).
Study Populations: The primary study population derived from the Women's Health Study (WHS), a randomized trial of aspirin (100 mg orally on alternate days) and placebo in the primary prevention of cardiovascular disease conducted among initially healthy women aged at least 45 at enrollment who were followed over a 10 year period (1, 2). At enrollment, participants provided baseline clinical and demographic information. 28,345 WHS participants provided blood for plasma and genetic analysis. Among these samples, baseline Lp(a) levels were measured with a turbidimetric assay that is not affected by the number of Kr IV type-2 repeats on the Hitachi 917 analyzer (Roche Diagnostics, Indianapolis, Ind.) (3). Baseline measurement of other lipid fractions, inflammation biomarkers, and other plasma components has been described previously (4). Total incident cardiovascular events adjudicated during the follow-up period included those typically associated with plaque rupture and vessel occlusion such as myocardial infarction (MI), ischemic stroke, and cardiovascular death, as well as those typically associated with progression of underlying atherosclerotic disease defined as revascularization by percutaneous transluminal coronary angioplasty (PTCA) or coronary artery bypass graft (CABG). Major incident cardiovascular events were defined as myocardial infarction, ischemic stroke, or cardiovascular death. In addition, the association between rs3798220 and plasma Lp(a) levels was evaluated in an independent group of 1058 Caucasian men who had participated in the Physicians Health Study (PHS) (5). Among these PHS participants, Lp(a) levels were determined with a standard clinical ELISA-based method (6).
Genotyping: Genotypes for rs3798220 in the WHS participants were determined by an oligonucleotide ligation procedure that combined PCR amplification of target sequences from 3 ng of genomic DNA with subsequent allele-specific oligonucleotide ligation (7). The ligation products of the two alleles were then separated by hybridization to product specific oligonucleotides, each coupled to spectrally distinct Luminex®100™ xMAP microspheres (Luminex, Austin, Tex.). The captured products were fluorescently labeled with streptavidin R-phycoerythrin (Prozyme, San Leandro, Calif.), sorted on the basis of microsphere spectrum, and detected by a Luminex®100™ instrument (8). Genotypes at rs3798220 in the PHS were determined with a fluorescence-based, allele specific, real-time DNA amplification method as described (ABI, Foster City) (9). For the WHS and PHS populations respectively, the fractions of samples with successful genotype determination were 96.3% and 97.8%. Of the 27,289 women with DNA samples for genotyping, full ascertainment for rs3798220 genotype, Lp(a) levels, age, and occurrence of incident cardiovascular events were available for 25,436. Of these, 24,320 were Caucasian, 468 were African-American, 282 were Asian American, 262 where Hispanic, 62 were Native American, and 42 had unknown ancestry.
Statistical methods: Deviations from Hardy-Weinberg equilibrium were evaluated using a log-likelihood ratio test. […]

CC(=O)Oc1ccccc1C(=O)O [aspirin, acetylsalicylic acid]
relative risk reduction of major vascular events with aspirin (Caucasian WHS women, non-carriers of rs3798220 minor allele (TT)): 9% | relative risk reduction of coronary revascularization with aspirin (Caucasian WHS women, rs3798220 heterozygotes, aspirin 100 mg on alternate days vs placebo): 36% | relative risk reduction of major vascular events with aspirin (Caucasian WHS women, rs3798220 heterozygotes): 59% | effect of aspirin on relative risk of vascular events (Caucasian non-carriers of rs3798220 minor allele with Lp(a) above the 90th percentile (65.1 mg/dL)): reduced the relative risk of vascular events | effect of aspirin on relative risk of vascular events (Caucasian non-carriers of rs3798220 minor allele with Lp(a) below the 90th percentile): minimal effect | relative risk reduction for the revascularization endpoint with aspirin (Caucasians with Lp(a) levels above the 90th percentile (65.1 mg/dL), aspirin vs placebo): 39%
